Results reported in US20230322785A1, “ADENOSINE A2A AND A2B RECEPTOR DUAL ANTAGONISTS FOR IMMUNO-ONCOLOGY” (Merck Sharp & Dohme LLC, priority 2020, published 2023).

What follows are compounds tested against T1, human A2A adenosine receptor (Homo sapiens, UniProt P29274) (assay: A2A binding affinity, Method (B): scintillation proximity assay (SPA) with [3H]SCH58261). Settings: membranes of HEK293 or CHO cells expressing the human receptor.
T1 construct: expressed in transfected cells; host or cells: HEK293 or CHO cells
T1 sequence (P29274 whole entry): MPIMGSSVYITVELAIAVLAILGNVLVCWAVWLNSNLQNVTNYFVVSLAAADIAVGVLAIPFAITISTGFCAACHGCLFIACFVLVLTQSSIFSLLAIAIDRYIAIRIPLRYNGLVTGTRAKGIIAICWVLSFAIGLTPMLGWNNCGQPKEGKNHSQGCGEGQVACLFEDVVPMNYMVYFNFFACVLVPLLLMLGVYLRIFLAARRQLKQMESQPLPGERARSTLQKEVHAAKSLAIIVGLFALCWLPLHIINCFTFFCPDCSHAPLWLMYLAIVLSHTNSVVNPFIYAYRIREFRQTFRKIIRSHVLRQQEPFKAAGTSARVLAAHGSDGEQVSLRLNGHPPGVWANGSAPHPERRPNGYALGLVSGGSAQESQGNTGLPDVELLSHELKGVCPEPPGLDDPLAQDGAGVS
Source text: Method (A) describes the procedure used to measure A2A binding affinity using radioligand binding. Method (B) describes the procedure used to measure A2A binding affinity using SPA technology. The method used to measure A2B binding affinity is also described below. The method used to determine the A2A IC50 value reported for each compound in the table is indicated next to the reported value. The A2B IC50 value measured using the A2B binding affinity assay is shown in the table next to the compound under the corresponding A2A value.
The A2A receptor affinity binding assay measured the amount of binding of a tritiated ligand with high affinity for the A2A adenosine receptor to membranes made from HEK293 or CHO cells recombinantly expressing the human A2A adenosine receptor, in the presence of varying concentrations of a compound of the invention. The data were generated using either filtration binding or a homogenous scintillation proximity assay (SPA).
Method (B): Measurement of A2A Binding Affinity Using SPA
Binding affinity using SPA was conducted as follows. Test compounds (50 nL) were dispensed into individual wells of a 384-well OptiPlate™ well (Perkin Elmer) by Echo® acoustic liquid transfer (Labcyte). 20 µL of 1.25 nM [^3H] SCH58261 ((7-(2-phenylethyl)-5-amino-2-(2-furyl)-pyrazolo-[4,3-e]-1,2,4-triazolo[1,5-c]pyrimidine)) in DPBS assay buffer (Dulbecco’s phosphate buffered saline without calcium and magnesium, ThermoFisher Scientific, Cat. No. A1285601) supplemented with 10 mM MgCl2 was added. A2A receptor-expressing membranes were incubated with 20 µg/mL adenosine deaminase (Roche, Cat. No. 10 102 105 001) for 15 min at room temperature. The receptor-expressing membranes were then combined with wheat germ agglutinin-coated yttrium silicate SPA beads (GE Healthcare, Cat. No. RPNQ0023) in a ratio of […] (w/w) and incubated for 30 min at room temperature. 30 µL of the membrane/bead mixture (0.25 µg and 25 µg per well respectively) were added to the 384-well OptiPlate™ well. To define total and non-specific binding, wells containing 1% DMSO or 1 µM CGS 15943 (Tocris Bioscience, Cat. No. 1699) respectively were also included in the experiment. The plate was incubated for 1 h at room temperature with agitation. The assay plate was then incubated for an h to allow the beads to settle before data were collected using a TopCount® (Perkin Elmer) scintillation counter. After normalization to total and non-specific binding, the percent effect at each compound concentration was calculated. The plot of percent effect versus the log of compound concentration was analyzed electronically using a 4-parameter logistic fit based on the Levenberg-Marquardt algorithm to generate IC50 values.

With `CCN(Cc1ccc(C(F)(F)F)cc1)Cc1nc2c3cccc(OC)c3nc(N)n2n1` [Example 15.1, 2-((ethyl(4-(trifluoromethyl)benzyl)amino)methyl)-7-methoxy-[1,2,4]triazolo[1,5-c]quinazolin-5-amine] as the compound, how does the IC50 read?
Its IC50 is 3.2 nM.

How did the IC50 turn out when `COc1cccc2c1nc(N)n1nc(CN(Cc3ccc(C(F)(F)F)nc3)CC3CC3)nc21` [Example 16.8, 2-(((cyclopropylmethyl)((6-(trifluoromethyl)pyridin-3-yl)methyl)amino)methyl)-7-methoxy-[1,2,4]triazolo[1,5-c]quinazolin-5-amine] was run?
The IC50 was 24.1 nM.

How did the IC50 turn out when `COc1cccc2c1nc(N)n1nc(CNCc3ccccc3C(F)(F)F)nc21` [Example 8.4, 7-methoxy-2-(((2-(trifluoromethyl)benzyl)amino)methyl)-[1,2,4]triazolo[1,5-c]quinazolin-5-amine] was run?
Its IC50 is 3.2 nM.

How did the IC50 turn out when `CCNCc1nc2c3cccc(OC)c3nc(N)n2n1` [Example 10.4, 2-((ethylamino)methyl)-7-methoxy-[1,2,4]triazolo[1,5-c]quinazolin-5-amine] was run?
The IC50 was 46 nM.

How did the IC50 turn out when `COc1cccc2c1nc(N)n1nc(CN[C@@H](C)c3ccc(C(F)(F)F)cc3)nc21` [Example 7.2, (S)-7-methoxy-2-(((1-(4-(trifluoromethyl)phenyl)ethyl)amino)methyl)-[1,2,4]triazolo[1,5-c]quinazolin-5-amine] was run?
The IC50 was 7.2 nM.

How did the IC50 turn out when `COc1cccc2c1nc(N)n1nc(CN[C@@H](C)C(F)(F)F)nc21` [Example 10.9] was run?
The IC50 was 5.9 nM.

Which IC50 does the source give for `COc1cccc2c1nc(N)n1nc(CN(Cc3ccc(C(F)(F)F)cc3)C[C@@H]3CO3)nc21` [Example 18.1, (R)-7-methoxy-2-(((oxiran-2-ylmethyl)(4-(trifluoromethyl)benzyl)amino)methyl)-[1,2,4]triazolo[1,5-c]quinazolin-5-amine] here?
Its IC50 is 20.2 nM.

For `COc1cccc2c1nc(N)n1nc(CCNCc3ccccc3C(F)(F)F)nc21` [Example 22.6, 7-methoxy-2-(2-((2-(trifluoromethyl)benzyl)amino)ethyl)-[1,2,4]triazolo[1,5-c]quinazolin-5-amine], which IC50 is on record?
The IC50 was 9.7 nM.

Which IC50 does the source give for `COc1cccc2c1nc(N)n1nc(CN(Cc3ccccn3)CC3CC3)nc21` [Example 16.1, 2-(((cyclopropylmethyl)(pyridin-2-ylmethyl)amino)methyl)-7-methoxy-[1,2,4]triazolo[1,5-c]quinazolin-5-amine] here?
The IC50 was 12.8 nM.

How did the IC50 turn out when `COc1cccc2c1nc(N)n1nc(CCN(C)Cc3ccc(C(F)(F)F)cc3)nc21` [Example 22.5, 7-methoxy-2-(2-(methyl(4-(trifluoromethyl)benzyl)amino)ethyl)-[1,2,4]triazolo[1,5-c]quinazolin-5-amine] was run?
The IC50 was 4.1 nM.

For `COc1cccc2c1nc(N)n1nc(CC(=O)N[C@H]3CCOc4ccncc43)nc21` [Example 4.8, (S)-2-(5-amino-7-methoxy-[1,2,4]triazolo[1,5-c]quinazolin-2-yl)-N-(3,4-dihydro-2H-pyrano[3,2-c]pyridin-4-yl)acetamide], which IC50 is on record?
Its IC50 is 111 nM.

Which IC50 does the source give for `COc1cccc2c1nc(N)n1nc(CNCc3ccc(S(F)(F)(F)(F)F)cc3)nc21` [Example 8.7, 7-methoxy-2-(((4-(pentafluoro-λ^6-sulfanyl)benzyl)amino)methyl)-[1,2,4]triazolo[1,5-c]quinazolin-5-amine] here?
Its IC50 is 6.4 nM.

With `COc1cccc2c1nc(N)n1nc(CN[C@H](C)c3ccc(C(F)(F)F)cc3)nc21` [Example 8.2, (R)-7-methoxy-2-(((1-(4-(trifluoromethyl)phenyl)ethyl)amino)methyl)-[1,2,4]triazolo[1,5-c]quinazolin-5-amine] as the compound, how does the IC50 read?
The IC50 was 22.4 nM.

Which IC50 does the source give for `COc1cccc2c1nc(N)n1nc(CN(Cc3ccc(C(F)(F)F)cc3)S(=O)(=O)C3CC3)nc21` [Example 19.5, N-((5-amino-7-methoxy-[1,2,4]triazolo[1,5-c]quinazolin-2-yl)methyl)-N-(4-(trifluoromethyl)benzyl)cyclopropanesulfonamide] here?
The IC50 was 17.6 nM.

`COc1cccc2c1nc(N)n1nc(CN(Cc3ccc(C(F)(F)F)cc3)C3CC3)nc21` [Example 8.9, 2-((cyclopropyl(4-(trifluoromethyl)benzyl)amino)methyl)-7-methoxy-[1,2,4]triazolo[1,5-c]quinazolin-5-amine] was tested. Which IC50 did it give?
Its IC50 is 2.5 nM.

Which IC50 does the source give for `CCN(Cc1nc2c3cccc(OC)c3nc(N)n2n1)CC1CCN(c2ncc(F)cn2)CC1` [Example 15.16, 2-((ethyl((1-(5-fluoropyrimidin-2-yl)piperidin-4-yl)methyl)amino)methyl)-7-methoxy-[1,2,4]triazolo[1,5-c]quinazolin-5-amine] here?
Its IC50 is 31 nM.

`CCCN(Cc1ccc(C(F)(F)F)cc1)Cc1nc2c3cccc(OC)c3nc(N)n2n1` [Example 15.3, 7-methoxy-2-((propyl(4-(trifluoromethyl)benzyl)amino)methyl)-[1,2,4]triazolo[1,5-c]quinazolin-5-amine] was tested. Which IC50 did it give?
The IC50 was 2.3 nM.

`Nc1nc2c(F)cc(F)cc2c2nc(CCNCc3ccc(C(F)(F)F)cc3)nn12` [Example 10.2, 7,9-difluoro-2-(2-((4-(trifluoromethyl)benzyl)amino)ethyl)-[1,2,4]triazolo[1,5-c]quinazolin-5-amine] was tested. Which IC50 did it give?
Its IC50 is 110 nM.

`COc1cccc2c1nc(N)n1nc(CNC(=O)OCc3ccccc3)nc21` [Example 6.1, benzyl ((5-amino-7-methoxy-[1,2,4]triazolo[1,5-c]quinazolin-2-yl)methyl)carbamate] was tested. Which IC50 did it give?
Its IC50 is 5.9 nM.

For `COc1cccc2c1nc(N)n1nc(CN(CC3CC3)C3CN(C(=O)OC(C)(C)C)C3)nc21` [Example 16.12, tert-butyl 3-(((5-amino-7-methoxy-[1,2,4]triazolo[1,5-c]quinazolin-2-yl)methyl)(cyclopropylmethyl)amino)azetidine-1-carboxylate], which IC50 is on record?
Its IC50 is 5.7 nM.

How did the IC50 turn out when `COc1cccc2c1nc(N)n1nc(CN(Cc3cccc4ncccc34)CC3CC3)nc21` [Example 16.16, 2-(((cyclopropylmethyl)(quinolin-5-ylmethyl)amino)methyl)-7-methoxy-[1,2,4]triazolo[1,5-c]quinazolin-5-amine] was run?
Its IC50 is 3.5 nM.

For `COc1cccc2c1nc(N)n1nc(CN(Cc3ncco3)CC3CC3)nc21` [Example 16.11, 2-(((cyclopropylmethyl)(oxazol-2-ylmethyl)amino)methyl)-7-methoxy-[1,2,4]triazolo[1,5-c]quinazolin-5-amine], which IC50 is on record?
The IC50 was 9.4 nM.

For `COc1cccc2c1nc(N)n1nc(CN(CCC(F)(F)F)CC3CCN(c4ncc(F)cn4)CC3)nc21` [Example 14.4, 2-((((1-(5-fluoropyrimidin-2-yl)piperidin-4-yl)methyl)(3,3,3-trifluoropropyl)amino)methyl)-7-methoxy-[1,2,4]triazolo[1,5-c]quinazolin-5-amine], which IC50 is on record?
Its IC50 is 38.2 nM.

For `COc1cccc2c1nc(N)n1nc(CN(Cc3ccc(N4CCOCC4)nc3)CC3CC3)nc21` [Example 16.4, 2-(((cyclopropylmethyl)((6-morpholinopyridin-3-yl)methyl)amino)methyl)-7-methoxy-[1,2,4]triazolo[1,5-c]quinazolin-5-amine], which IC50 is on record?
Its IC50 is 10.9 nM.

How did the IC50 turn out when `COc1cccc2c1nc(N)n1nc(CNC(C)(C)c3cccnc3)nc21` [Example 7.5, 7-methoxy-2-(((2-(pyridin-3-yl)propan-2-yl)amino)methyl)-[1,2,4]triazolo[1,5-c]quinazolin-5-amine] was run?
The IC50 was 20.5 nM.

Which IC50 does the source give for `COc1cccc2c1nc(N)n1nc(CC(=O)NCc3ccc(C(F)(F)F)cc3)nc21` [Example 4.4, 2-(5-amino-7-methoxy-[1,2,4]triazolo[1,5-c]quinazolin-2-y1)-N-(4-(trifluoromethyl)benzyl)acetamide] here?
The IC50 was 9.4 nM.

With `COCc1ccc(CNCc2nc3c4cccc(OC)c4nc(N)n3n2)cc1` [Example 7.7, 7-methoxy-2-(((4-(methoxymethyl)benzyl)amino)methyl)-[1,2,4]triazol[1,5-c]quinazolin-5-amine] as the compound, how does the IC50 read?
The IC50 was 2.2 nM.

For `COc1cccc2c1nc(N)n1nc(CN(Cc3ccc(C(F)(F)F)cc3)S(=O)(=O)C(F)(F)F)nc21` [Example 19.3, N-((5-amino-7-methoxy-[1,2,4]triazolo[1,5-c]quinazolin-2-yl)methyl)-1,1,1-trifluoro-N-(4-(trifluoromethyl)benzyl)methanesulfonamide], which IC50 is on record?
The IC50 was 115 nM.

How did the IC50 turn out when `COc1cccc2c1nc(N)n1nc(CN(Cc3ccc(OC(F)(F)F)cc3)CC3CCCCC3)nc21` [Example 15.11, 2-(((cyclohexylmethyl)(4-(trifluoromethoxy)benzyl)amino)methyl)-7-methoxy-[1,2,4]triazolo[1,5-c]quinazolin-5-amine] was run?
The IC50 was 123 nM.

How did the IC50 turn out when `COc1cccc2c1nc(N)n1nc(CNC(=O)CCc3ccc(C(F)(F)F)cc3)nc21` [Example 2.3] was run?
Its IC50 is 4.5 nM.
